Values after ≈ are worked out from the molar mass of the structure shown. Like-named read-outs stand apart in the source and are kept apart here.
Columns and labels:
Format in all cases: cell-based
K. pneumoniae 2713 = experiment: MIC against K. pneumoniae 2713; details: Table 3, K. pneumoniae 2713, KPC-3, VIM-1
Experimental: (§1) As shown, the foregoing composition was tested for minimum inhibitory concentration (MIC, μg/mL) against bacteria listed in Tables 2-3.

S. pneumoniae 2406 = experiment: MIC against S. pneumoniae 2406; details: Table 2, S. pneumoniae 2406, Pen S
Excerpt: (§2) Without limitation, the present cephem compounds alone, or in combination with one or more β-lactamase inhibitors, may provide improved antibacterial efficacy, particularly in antibiotic-resistant bacterial strains. It is believed that the present compounds may be structurally different from known compounds and, as a result, may be more basic in nature. It is an advantage that the present compounds may extend the spectrum of effective bacterial compounds, particularly against previously-resistant bacteria (e.g. ESKAPE organisms), and/or gram negative bacteria, without significant side effects. In a preferred embodiment, the present cephem compound may comprise reference compound ceftazidime, which may be used alone, or in combination with one or more β-lactamase inhibitors, such as NXL-104. As shown, the foregoing composition was tested for minimum inhibitory concentration (MIC, μg/mL) against bacteria listed in Tables 2-3.

K. pneumoniae 4107 = experiment: MIC against K. pneumoniae 4107; details: K. pneumoniae 4107, KPC-2, TEM-1, SHV-11
Experimental: as §1

E. coli 4102 = experiment: MIC against E. coli 4102; details: Table 2, E. coli 4102, CTX-M-14
Excerpt: as §2

S. pneumoniae 2392 = experiment: MIC against S. pneumoniae 2392; details: Table 2, S. pneumoniae 2392, Pen R
Excerpt: as §2

K. baumanii 4091 = experiment: MIC against K. baumanii 4091; details: Table 2, K. baumanii 4091, OXA-23
Excerpt: as §2

S. aureus 3144 = experiment: MIC against S. aureus 3144; details: Table 2, S. aureus 3144, MSSA
Excerpt: as §2

K. baumanii 4094 = experiment: MIC against K. baumanii 4094; details: Table 2, K. baumanii 4094, OXA-51
Excerpt: as §2

K. pneumoniae 2689 = experiment: MIC against K. pneumoniae 2689; details: K. pneumoniae 2689, KPC-2
Experimental: as §1

S. pneumoniae 2404 = experiment: MIC against S. pneumoniae 2404; details: Table 2, S. pneumoniae 2404, Pen S
Excerpt: as §2

E. coli 4101 = experiment: MIC against E. coli 4101; details: Table 2, E. coli 4101, CTX-M-14, TEM-1
Excerpt: as §2

E. coli 102 = experiment: MIC against E. coli 102; details: Table 2, E. coli 102, TEM-1
Excerpt: as §2

[1] = test system: S. pneumoniae ATCC 700673; experiment: MIC against S. pneumoniae ATCC 700673; details: Table 2, S. pneumoniae ATCC 700673, Pen R
Excerpt: as §2

E. coli 4080 = experiment: MIC against E. coli 4080; details: Table 2, E. coli 4080, TEM-10
Excerpt: as §2

P. aeruginosa 2686 = experiment: MIC against P. aeruginosa 2686; details: Table 3, P. aeruginosa 2686, KPC-2
Experimental: as §1

E. cloacae 2709 = experiment: MIC against E. cloacae 2709; details: Table 3, E. cloacae 2709, KPC-3, VIM-1
Experimental: as §1

S. pneumoniae 2405 = experiment: MIC against S. pneumoniae 2405; details: Table 2, S. pneumoniae 2405, Pen S
Excerpt: as §2

E. cloacae 2689 = experiment: MIC against E. cloacae 2689; details: Table 3, E. cloacae 2689, KPC-2
Experimental: as §1

K. pneumoniae 4104 = experiment: MIC against K. pneumoniae 4104; details: K. pneumoniae 4104, KPC-3, TEM-1
Experimental: as §1

E. cloacae 2044 = experiment: MIC against E. cloacae 2044; details: Table 2, E. cloacae 2044, Caz S, IMP S
Excerpt: as §2

E. coli 4103 = experiment: MIC against E. coli 4103; details: Table 3, E. coli 4103, KPC-2, TEM-1, CMY-type
Experimental: as §1

K. pneumoniae 2697 = experiment: MIC against K. pneumoniae 2697; details: Table 2, K. pneumoniae 2697, IMP-4
Excerpt: as §2

C. freundii 579 = experiment: MIC against C. freundii 579; details: Table 2, C. freundii 579, Caz R, IMP S
Excerpt: as §2

[2] = Klebsiella pneumoniae, alone, read-out: MIC
[3] = Streptococcus pneumoniae, alone, read-out: MIC
[4] = Klebsiella pneumoniae, 4107, Table 2, alone, read-out: MIC
[5] = Klebsiella pneumoniae, 4107, Table 3, alone, read-out: MIC
[6] = Table 2, in combination with NXL-104
[7] = Table 3, in combination with NXL-104
[8] = Escherichia coli, alone, read-out: MIC
[9] = Staphylococcus aureus, alone, read-out: MIC
[10] = Klebsiella pneumoniae, 2689, Table 2, alone, read-out: MIC
[11] = Klebsiella pneumoniae, 2689, Table 3, alone, read-out: MIC
[12] = Streptococcus pneumoniae, ATCC700673, alone, read-out: MIC
[13] = Pseudomonas aeruginosa, alone, read-out: MIC
[14] = Enterobacter cloacae, alone, read-out: MIC
[15] = Klebsiella pneumoniae, 4104, Table 2, alone, read-out: MIC
[16] = Klebsiella pneumoniae, 4104, Table 3, alone, read-out: MIC
[17] = Citrobacter freundii, alone, read-out: MIC

Compound: CC(C)(O/N=C(\C(=O)N[C@@H]1C(=O)N2C(C(=O)[O-])=C(C[n+]3ccc4c(ccn4Cc4cc(C(=N)N)co4)c3)CS[C@H]12)c1csc(N)n1)C(=O)O [Example 6, (6R,7R)-7-{[(2Z)-2-(2-Amino-1,3-thiazol-4-yl)-2-{[(2-carboxypropan-2-yl)oxy]imino}acetyl]amino}-3-({1-[(4-carbamimidoylfuran-2-yl)methyl]-1H-pyrrolo[3,2-c]pyridin-5-ium-5-yl}methyl)-8-oxo-5-thia-1-azabicyclo[4.2.0]oct-2-ene-2-carboxylate]
- MIC (K. pneumoniae 2713; [2]): > 32 µg/mL
- MIC (K. pneumoniae 2713; in combination with NXL-104): 2 µg/mL
- MIC (S. pneumoniae 2406; [3]): ≤ 0.06 µg/mL
- MIC (S. pneumoniae 2406; in combination with NXL-104): ≤0.06 µg/mL
- MIC (K. pneumoniae 4107; [4]): 32 µg/mL (≈ 45.2 µM)
- MIC (K. pneumoniae 4107; [5]): 16 µg/mL (≈ 22.6 µM)
- MIC (K. pneumoniae 4107; [6]): 2.00 µg/mL
- MIC (K. pneumoniae 4107; [7]): 1 µg/mL
- MIC (E. coli 4102; [8]): 2 µg/mL
- MIC (E. coli 4102; in combination with NXL-104): 0.12 µg/mL
- MIC (S. pneumoniae 2392; [3]): 2 µg/mL
- MIC (S. pneumoniae 2392; in combination with NXL-104): 2.00 µg/mL
- MIC (K. baumanii 4091; alone, read-out: MIC): 16 µg/mL
- MIC (K. baumanii 4091; in combination with NXL-104): 4.00 µg/mL
- MIC (S. aureus 3144; [9]): 8 µg/mL
- MIC (S. aureus 3144; in combination with NXL-104): 8.00 µg/mL
- MIC (K. baumanii 4094; alone, read-out: MIC): 16 µg/mL
- MIC (K. baumanii 4094; in combination with NXL-104): 8.00 µg/mL
- MIC (K. pneumoniae 2689; [10]): 16 µg/mL (≈ 22.6 µM)
- MIC (K. pneumoniae 2689; [11]): 16 µg/mL (≈ 22.6 µM)
- MIC (K. pneumoniae 2689; [6]): 1.00 µg/mL
- MIC (K. pneumoniae 2689; [7]): 1 µg/mL
- MIC (S. pneumoniae 2404; [3]): ≤ 0.06 µg/mL
- MIC (S. pneumoniae 2404; in combination with NXL-104): ≤0.06 µg/mL
- MIC (E. coli 4101; [8]): 0.5 µg/mL
- MIC (E. coli 4101; in combination with NXL-104): ≤0.06 µg/mL
- MIC (E. coli 102; [8]): ≤ 0.06 µg/mL
- MIC (E. coli 102; in combination with NXL-104): ≤0.06 µg/mL
- MIC [1, 12]: 2 µg/mL
- MIC ([1]; in combination with NXL-104): 2.00 µg/mL
- MIC (E. coli 4080; [8]): 16 µg/mL
- MIC (E. coli 4080; in combination with NXL-104): 0.50 µg/mL
- MIC (P. aeruginosa 2686; [13]): 32 µg/mL (≈ 45.2 µM)
- MIC (P. aeruginosa 2686; in combination with NXL-104): 8 µg/mL
- MIC (E. cloacae 2709; [14]): 32 µg/mL (≈ 45.2 µM)
- MIC (E. cloacae 2709; in combination with NXL-104): 4 µg/mL
- MIC (S. pneumoniae 2405; [3]): ≤ 0.06 µg/mL
- MIC (S. pneumoniae 2405; in combination with NXL-104): ≤0.06 µg/mL
- MIC (E. cloacae 2689; [14]): 16 µg/mL (≈ 22.6 µM)
- MIC (E. cloacae 2689; in combination with NXL-104): 1 µg/mL
- MIC (K. pneumoniae 4104; [15]): 32 µg/mL (≈ 45.2 µM)
- MIC (K. pneumoniae 4104; [16]): 32 µg/mL (≈ 45.2 µM)
- MIC (K. pneumoniae 4104; [6]): 2.00 µg/mL
- MIC (K. pneumoniae 4104; [7]): 0.5 µg/mL
- MIC (E. cloacae 2044; [14]): 0.12 µg/mL
- MIC (E. cloacae 2044; in combination with NXL-104): ≤0.06 µg/mL
- MIC (E. coli 4103; [8]): > 32 µg/mL
- MIC (E. coli 4103; in combination with NXL-104): 4 µg/mL
- MIC (K. pneumoniae 2697; [2]): 16 µg/mL
- MIC (K. pneumoniae 2697; in combination with NXL-104): 0.50 µg/mL
- MIC (C. freundii 579; [17]): 2 µg/mL
- MIC (C. freundii 579; in combination with NXL-104): 0.25 µg/mL

Compound: CC(C)(O/N=C(\C(=O)N[C@@H]1C(=O)N2C(C(=O)[O-])=C(C[n+]3ccc4n3CCN4Cc3ccc(C(=N)N)cc3)CS[C@H]12)c1csc(N)n1)C(=O)O [Example 2, (6R,7R)-7-{[(2Z)-2-(2-Amino-1,3-thiazol-4-yl)-2-{[(2-carboxypropan-2-yl)oxy]imino}acetyl]amino}-3-{[1-(4-carbamimidoylbenzyl)-2,3-dihydro-1H-imidazo[1,2-b]pyrazol-5-ium-5-yl]methyl}-8-oxo-5-thia-1-azabicyclo[4.2.0]oct-2-ene-2-carboxylate]
- MIC (K. pneumoniae 2713; [2]): > 32 µg/mL
- MIC (K. pneumoniae 2713; in combination with NXL-104): 2 µg/mL
- MIC (S. pneumoniae 2406; [3]): ≤ 0.06 µg/mL
- MIC (S. pneumoniae 2406; in combination with NXL-104): ≤0.06 µg/mL
- MIC (K. pneumoniae 4107; [4]): 16 µg/mL (≈ 22.6 µM)
- MIC (K. pneumoniae 4107; [5]): > 32 µg/mL
- MIC (K. pneumoniae 4107; [6]): 4.00 µg/mL
- MIC (K. pneumoniae 4107; [7]): 2 µg/mL
- MIC (E. coli 4102; [8]): 1 µg/mL
- MIC (E. coli 4102; in combination with NXL-104): 0.12 µg/mL
- MIC (S. pneumoniae 2392; [3]): 8 µg/mL
- MIC (S. pneumoniae 2392; in combination with NXL-104): 8.00 µg/mL
- MIC (K. baumanii 4091; alone, read-out: MIC): 8 µg/mL
- MIC (K. baumanii 4091; in combination with NXL-104): 2.00 µg/mL
- MIC (S. aureus 3144; [9]): 4 µg/mL
- MIC (S. aureus 3144; in combination with NXL-104): 4.00 µg/mL
- MIC (K. baumanii 4094; alone, read-out: MIC): 32 µg/mL
- MIC (K. baumanii 4094; in combination with NXL-104): 8.00 µg/mL
- MIC (K. pneumoniae 2689; [10]): 8 µg/mL (≈ 11.3 µM)
- MIC (K. pneumoniae 2689; [11]): 32 µg/mL (≈ 45.1 µM)
- MIC (K. pneumoniae 2689; [6]): 2.00 µg/mL
- MIC (K. pneumoniae 2689; [7]): 2 µg/mL
- MIC (S. pneumoniae 2404; [3]): 0.25 µg/mL
- MIC (S. pneumoniae 2404; in combination with NXL-104): 0.25 µg/mL
- MIC (E. coli 4101; [8]): 0.5 µg/mL
- MIC (E. coli 4101; in combination with NXL-104): 0.12 µg/mL
- MIC (E. coli 102; [8]): ≤ 0.06 µg/mL
- MIC (E. coli 102; in combination with NXL-104): ≤0.06 µg/mL
- MIC [1, 12]: 8 µg/mL
- MIC ([1]; in combination with NXL-104): 8.00 µg/mL
- MIC (E. coli 4080; [8]): 8 µg/mL
- MIC (E. coli 4080; in combination with NXL-104): 1.00 µg/mL
- MIC (P. aeruginosa 2686; [13]): > 32 µg/mL
- MIC (P. aeruginosa 2686; in combination with NXL-104): 16 µg/mL
- MIC (E. cloacae 2709; [14]): 16 µg/mL (≈ 22.6 µM)
- MIC (E. cloacae 2709; in combination with NXL-104): 4 µg/mL
- MIC (S. pneumoniae 2405; [3]): 0.12 µg/mL
- MIC (S. pneumoniae 2405; in combination with NXL-104): ≤0.06 µg/mL
- MIC (E. cloacae 2689; [14]): 8 µg/mL (≈ 11.3 µM)
- MIC (E. cloacae 2689; in combination with NXL-104): 0.5 µg/mL
- MIC (K. pneumoniae 4104; [15]): 8 µg/mL (≈ 11.3 µM)
- MIC (K. pneumoniae 4104; [16]): 32 µg/mL (≈ 45.1 µM)
- MIC (K. pneumoniae 4104; [6]): 2.00 µg/mL
- MIC (K. pneumoniae 4104; [7]): 2 µg/mL
- MIC (E. cloacae 2044; [14]): 0.25 µg/mL
- MIC (E. cloacae 2044; in combination with NXL-104): 0.12 µg/mL
- MIC (E. coli 4103; [8]): > 32 µg/mL
- MIC (E. coli 4103; in combination with NXL-104): 8 µg/mL
- MIC (K. pneumoniae 2697; [2]): 4 µg/mL
- MIC (K. pneumoniae 2697; in combination with NXL-104): 1.00 µg/mL
- MIC (C. freundii 579; [17]): 2 µg/mL
- MIC (C. freundii 579; in combination with NXL-104): 0.50 µg/mL

From USRE48097E1, “Cephem compounds, their production and use” (priority 2015, dated 2020)
